Test results: patent publication US7531500B2, “Preventing airway mucus production by administration of EGF-R antagonists” (The Regents of the University of California, priority 1998, dated 2009)

What was measured:
pathogen-free rats [1] = assay: Agarose plug-induced goblet cell metaplasia in pathogen-free rats; format: in vivo, rat
Protocol: Protocol of experiments. We studied pathogen-free rats, because they normally have few goblet cells in airways. The animals were anesthetized with methohexital sodium (Brevital, 25 mg/kg, i.p.). The trachea was exposed aseptically with a midline cervical incision, and agarose plugs were instilled into a bronchus via a 20 gauge Angiocath (Becton Dikinson, Sandy, Utah) connected to polyethylene tubing (PE 90, internal diameter 0.86 mm and outer diameter 1.27 mm, Clay Adams, Parsippany, N.Y.) threaded into the incised trachea. The polyethylene tube was bent at a 30° angle to allow selective instillation into the right bronchus. After instillation, the incision was closed with a suture.
To evaluate the role of EGF-R on agarose plug-induced goblet cell metaplasia, animals were treated with BIBX1522 (80 mg/kg, i.p.) 1 h before instillation of the agarose plugs and repeated daily (40 mg/kg, i.p., bid). Animals were euthanized 24, 48 or 72 h after instillation of the agarose plugs.
The first treatment (100 μl in 0.2 ml saline, i.p.) was given 1 h before the instillation of agarose plugs, and i.p. injections were repeated daily.
To study the effect of neutrophils on agarose plug-induced goblet cell metaplasia, rats were pretreated with cyclophosphamide (an inhibitor of bone marrow leukocytes) or with a combination of cyclophosphamide plus NPC 15669. Cyclophosphnamide (100 mg/kg, i.p.) was given 5 d before instillation of agarose plugs, and a second injection of cyclophosphamide (50 mg/kg, i.p.) was given 1 d before instillation of plugs. In studies with NPC 15669, the drug (10 mg/kg, i.p.) was injected 1 h before instillation of agarose plugs, and then daily for 3 d thereafter.
Tissue preparation. At various times after agarose plug instillation, rats were anesthetized with sodium pentobarbital (65 mg/kg, i.p.), the systemic circulation was perfused with 1% paraformaldehyde in diethyl pyrocarbonate-treated PBS at a pressure of 120 mmHg. The right lung was removed, and the right caudal lobe was used for histology. For frozen sections, tissues were removed and placed in 4% paraformaldehyde for 1 h and then replaced in 30% sucrose for cryoprotection overnight. The tissues were embedded in O.C.T. compound (Sakura Finetek U.S.A., Inc., Torrance, Calif.). For methacrylate sections, the tissues were placed in 4% paraformaidehyde for 24 h and then dehydrated with graded concentrations of ethanol and embedded in methacrylate JB-4 (Polysciences, Inc., Warrington, Pa.). Tissue sections (4 μm thick) were stained with Alcian blue/PAS and counterstained with hematoxylin.
Morphoometric analysis of bronchial epithelium. The percentage of Alcian blue/PAS-stained area of mucous glycoconjugates in the epithelium was determined using a semi-automatic image analysis system according to previously published methods. The area of epithelium and Alcian blue/PAS-stained mucous conjugates within the epithelium was manually circumscribed and analyzed using the NIH Image program (developed at the U.S. National Institutes of health and available from the internet by ananymous FTP or from a floppy disk from the National Technical Information Service, Springfield, Va.; part number PB95-500195GEI). The data are expressed as the percentage of the total epithelial area occupied by Alcian blue/PAS stain. […] The percentage of denuded epithelium was determined by calculating the ratio of the length of denuded epithelium to the total epithelial length.
Identification of cell types in methacrylate sections and cell analysis. The total number of epithelial cells was determined by counting epithelial cell nuclei over 2 mm of the basal lamina with an oil immersion objective lens (×1000 magnification). The linear length of the basal lamina under each analyzed region of epithelium was determined by tracing the contour of the digitalized image of the basal lamina. The epithelia; cells were identified as described previously.

pathogen-free rats [2] = assay: IL-13-induced goblet cell metaplasia in rat airways; format: in vivo; conditions: pretreatment
Protocol: Animals were anesthetized with pentobarbital [Nembutal sodium, 50 mg/kg, intraperitoneally (ip), Abbott Laboratories, North Chicago, Ill.] and allowed to breathe spontaneously. Vehicle (phosphate buffer solution, PBS) or IL-13 was instilled intratracheally via a 20-gauge Angiocath catheter (Beckton Dickinson, Sandy, Utah) through the mouth, while the laryngeal area was visualized using a high-intensity illuminator (FiberLite; Dolan Jenner Industries, Inc., Lawrence, Mass.). The […] tissues were examined 48 hours after instillation of IL-13. Various concentrations of IL-13 (recombinant murine IL-13; 5, 50, 100, and 500 ng/rat, R&D systems, Minneapolis, Minn.) were instilled into the trachea in […]. Sterile PBS (200 μl) was instilled into the trachea as controls. For examination of the relationship between IL-13-induced GC metaplasia and activation of EGFR, animals were pretreated 1 d before instillation of IL-13 and daily thereafter with a selective EGFR tyrosine kinase inhibitor (BIBX 1522; 1-30 mg/kg/day, ip; Boehringer Ingelheim, Ingelheim, Germany). Animals were euthanized 48 hours after instillation of IL-13. In preliminary studies, we noted that IL-13 causes leukocyte recruitment into the airways. We hypothesized that leukocyte recruitment results from IL-13-induced chemoattractant release from epithelium, and that this recruitment is involved in the IL-13-induced EGFR cascade leading to GC metaplasia. Groups of animals were euthanized 4, 8, 16, 24, and 48 hours after instillation of IL-13 (500 ng), and leukocytes were counted in airway tissue. […] Sigma chemical Co., St Louis, Mo.] or with a blocking antibody to interleukin-8 (IL-BAb; rabbit anti-human IL-8 antibody; Biosource, Camarillo, Calif.). […] In another series of studies, we instilled IL-8 Ab (10 μg/rat) intratracheally, along with IL-13; we repeated the instillation of anti-human IL-8 blocking antibody at 12 hour intervals until the animals were euthanized. Animals were euthanized with a lethal dose of pentobarbital (Nembutal sodium, 200 mg/kg, ip, Abbott Laboratories, North Chicago, Ill.), and the systemic circulation was perfused with 1% paraformaldehyde in Diethylpyrocarbonate (DEPC, Sigma chemical Co., St Louis, Mo.)-treated PBS via the left ventricle. For frozen sections, […] tissues were removed, placed in 4% paraformaldehyde overnight, and then placed in 30% sucrose for cryoprotection. The tissues were embedded in optimal cutting temperature (OCT, […]., Inc., Torrance, Calif.) compound. For plastic or paraffin sections, tissues were placed in 4% paraformaldehyde overnight, dehydrated with ethanol, and embedded in JB-4 plus monomer solution A (Polysclences, Inc., Warrington, Pa.) or in paraffin. The embedded tissues were cut as cross sections 4 μm thick and placed on glass slides. In all studies, the carina was examined to obtain consistent sampling. We measured AB/PAS-positive areas and total epithelial area, and we expressed the results as the percentage of AB/PAS area to total epithelial area. The analysis was performed with the public domain NIH IMAGE program (developed at the U.S. National Institutes of Health and available by anonymous FTP from zippy.nimh.gov. or floppy disk from the National Technical Information Service, Springfield, Va., part number PB95-500195GEI). […] For immunohistochemical localization of […], we used mouse anti-human IL-8 antibody (1:20; Biosource, Camarillo, Calif.). The sections were then incubated with biotinylated horse anti-mouse IgG (Vector Laboratories, Burlingame, Calif.) at 1:200 dilution for 1 hour at room temperature. Bound antibody was visualized according to standard protocols for avidin-biotin-peroxidase complex method. The measurement of MUC5AC protein also utilized the same method used for quantitative measurement of GC metaplasia in the epithelium. Animals were euthanized 4, 8, 16, 24, and 48 hours after instillation of IL-13 (500 ng), and leukocytes were counted in airway tissue. […]

O=P1(N(CCCl)CCCl)NCCCO1 (stereo not shown) [cyclophosphamide]
neutrophil count in venous blood (pathogen-free rats [1]; after cyclophosphamide 100 mg/kg then 50 mg/kg i.p., n=5): 1.8±0.5% | agarose plug-induced EGF-R protein expression (pathogen-free rats [1]; rat, in vivo): inhibited | agarose plug-induced goblet cell metaplasia (Alcian blue/PAS-positively stained cells) (pathogen-free rats [1]; rat, in vivo): inhibited | macrophage recruitment after agarose plugs (pathogen-free rats [1]; rat, in vivo): did not inhibit | plug-induced neutrophil recruitment in BAL (pathogen-free rats [1]; rat, in vivo): inhibited | number of neutrophils in the airway lumen (pathogen-free rats [1]; treated rats with plugs, 24 h): 2.6±0.3 /mm of basal lamina | number of neutrophils in the epithelium (pathogen-free rats [1]; treated rats with plugs, 24 h): 0.8±0.2 /mm | IL-13-induced TNFα expression (pathogen-free rats [2]): prevented | IL-13-induced leukocyte recruitment into airways (pathogen-free rats [2]): inhibited | IL-13-induced mucin production (pathogen-free rats [2]): prevented
